Measured values taken from ChEMBL document CHEMBL1131397, “Synthesis and immunosuppressive activity of ruthenium complexes” (Bioorg Med Chem Lett, 1998).

Species: Homo sapiens
Test: Immunosuppressive activity was evaluated by the inhibition of human T-lymphocyte proliferation
Type: functional

Compound	IC50 (Homo sapiens) [nM]	IC50 [nM]
CO[C@H]1C[C@@H]2CC[C@@H](C)[C@@](O)(O2)C(=O)C(=O)N2CCCC[C@H]2C(=O)O[C@H]([C@H](C)C[C@@H]2CC[C@@H](O)[C@H](OC)C2)CC(=O)[C@H](C)/C=C(\C)[C@@H](O)[C@@H](OC)C(=O)[C@H](C)C[C@H](C)/C=C/C=C/C=C/1C [SIROLIMUS]	0.5	
[Ru(imidazolidine)6](CF3SO3)2		4
[Ru(imidazolidine)6]Cl2		5
